{
  "source": "patent US7776917B2",
  "about": "“Non-standard amino acid conjugates of amphetamine and processes for making and using the same” (priority 2006, dated 2010)",
  "key": {"[1]": {"test": "Parenteral (intranasal, intravenous) administration of hArg-Amp, release of amphetamine (Example 1)", "conditions": "parenteral routes (intranasal, intravenous)"}, "[2]": {"conditions": "oral; hArg-Amp = 100%"}, "[3]": {"test": "Average results of 4 oral PK studies, Lys-Amp vs hArg-Amp (Example 7)", "conditions": "average of 4 oral studies, n=20; Lys-Amp = 100%"}, "[4]": {"test": "Intravenous PK study d-amphetamine, hArg-Amp, Orn-Amp (Example 11)", "conditions": "[…] equivalent, n=5, d-amphetamine in plasma"}, "[5]": {"test": "Intranasal PK study d-amphetamine, hArg-Amp, Orn-Amp (Example 10)", "conditions": "[…] equivalent, n=5, d-amphetamine in plasma, given in minutes"}, "[6]": {"test": "Oral PK study Lys-Amp, hArg-Amp, Orn-Amp, Cit-Amp (Example 9)", "conditions": "in words"}},
  "note": "Read-outs that look alike come from different tables or passages of the source.",
  "data": [
    {"compound": "C[C@@H](Cc1ccccc1)NC(=O)[C@@H](N)CCCCN=C(N)N.Cl.Cl", "note": "[hArg-Amp, l-homoarginine-d-amphetamine Dihydrochloride]", "values": [
      {"measurement": "release of amphetamine", "setting": "[1]", "value": "< 50", "unit": "%"},
      {"measurement": "% Tmax", "setting": "[2]", "value": 100, "unit": "%"}
    ]},
    {"compound": "l-lysine-d-amphetamine [Lys-Amp]", "values": [
      {"measurement": "% Tmax", "setting": "[3]", "value": 100, "unit": "%"}
    ]},
    {"compound": "C[C@H](N)Cc1ccccc1", "note": "[d-amp, d-amphetamine]", "values": [
      {"measurement": "Tmax", "setting": "[4]", "value": 15, "unit": "m"},
      {"measurement": "Tmax", "setting": "[5]", "value": 15, "unit": "m"}
    ]},
    {"compound": "l-citrulline-d-amphetamine hydrochloride [Cit-Amp]", "values": [
      {"measurement": "Tmax compared to Lys-Amp", "setting": "[6]", "value": "significantly shifted the Tmax"}
    ]}
  ]
}
